Here are results for four molecules from ChEMBL document CHEMBL5352506, “The Zinc-Binding Group Effect: Lessons from Non-Hydroxamic Acid Vorinostat Analogs” (J Med Chem, 2023).

Structures are written as SMILES.

Assay [1] has as its target T1, Protein deacetylase HDAC6 (Homo sapiens, UniProt Q9UBN7).
T1 sequence (Q9UBN7 whole entry): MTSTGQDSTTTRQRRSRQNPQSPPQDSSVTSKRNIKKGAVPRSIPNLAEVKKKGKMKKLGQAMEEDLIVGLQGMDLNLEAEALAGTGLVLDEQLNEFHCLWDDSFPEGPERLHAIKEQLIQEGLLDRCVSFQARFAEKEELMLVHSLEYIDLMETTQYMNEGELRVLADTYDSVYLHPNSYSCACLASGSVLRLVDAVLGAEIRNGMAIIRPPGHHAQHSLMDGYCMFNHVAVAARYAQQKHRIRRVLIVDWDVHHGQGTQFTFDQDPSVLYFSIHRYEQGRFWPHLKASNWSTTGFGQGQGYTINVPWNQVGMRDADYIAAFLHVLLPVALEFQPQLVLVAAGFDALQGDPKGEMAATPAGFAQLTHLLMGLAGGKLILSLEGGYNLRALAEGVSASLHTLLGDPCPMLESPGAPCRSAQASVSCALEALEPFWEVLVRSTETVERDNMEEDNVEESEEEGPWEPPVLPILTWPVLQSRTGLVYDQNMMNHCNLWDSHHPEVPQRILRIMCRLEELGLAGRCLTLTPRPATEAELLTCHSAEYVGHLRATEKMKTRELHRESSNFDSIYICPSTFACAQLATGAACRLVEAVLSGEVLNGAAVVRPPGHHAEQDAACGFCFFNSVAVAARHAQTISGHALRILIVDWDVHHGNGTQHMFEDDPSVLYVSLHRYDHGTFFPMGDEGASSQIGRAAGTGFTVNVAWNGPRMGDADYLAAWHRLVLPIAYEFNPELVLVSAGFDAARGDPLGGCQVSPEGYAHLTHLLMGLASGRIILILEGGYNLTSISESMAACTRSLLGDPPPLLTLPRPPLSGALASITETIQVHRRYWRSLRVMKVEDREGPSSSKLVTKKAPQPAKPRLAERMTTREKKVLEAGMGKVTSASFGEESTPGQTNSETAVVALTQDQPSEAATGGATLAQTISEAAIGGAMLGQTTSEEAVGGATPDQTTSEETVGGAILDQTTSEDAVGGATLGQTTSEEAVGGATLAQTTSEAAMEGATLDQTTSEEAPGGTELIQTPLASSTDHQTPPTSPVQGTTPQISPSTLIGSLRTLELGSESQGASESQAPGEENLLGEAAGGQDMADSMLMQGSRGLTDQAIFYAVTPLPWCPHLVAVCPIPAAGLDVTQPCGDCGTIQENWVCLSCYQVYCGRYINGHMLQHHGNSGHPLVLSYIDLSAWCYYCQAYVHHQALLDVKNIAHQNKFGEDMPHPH
The experiment in a line: Inhibition of human recombinant HDAC6 using ArgHisLysLys(Ac) as substrate by fluorescence based analysis.

Assay [2] addresses Histone deacetylase 1 (Homo sapiens, UniProt Q13547). The experiment in a line: Inhibition of human recombinant HDAC1 using ArgHisLysLys(Ac) as substrate by fluorescence based analysis.

Chain of Histone deacetylase 1 (Q13547 whole entry): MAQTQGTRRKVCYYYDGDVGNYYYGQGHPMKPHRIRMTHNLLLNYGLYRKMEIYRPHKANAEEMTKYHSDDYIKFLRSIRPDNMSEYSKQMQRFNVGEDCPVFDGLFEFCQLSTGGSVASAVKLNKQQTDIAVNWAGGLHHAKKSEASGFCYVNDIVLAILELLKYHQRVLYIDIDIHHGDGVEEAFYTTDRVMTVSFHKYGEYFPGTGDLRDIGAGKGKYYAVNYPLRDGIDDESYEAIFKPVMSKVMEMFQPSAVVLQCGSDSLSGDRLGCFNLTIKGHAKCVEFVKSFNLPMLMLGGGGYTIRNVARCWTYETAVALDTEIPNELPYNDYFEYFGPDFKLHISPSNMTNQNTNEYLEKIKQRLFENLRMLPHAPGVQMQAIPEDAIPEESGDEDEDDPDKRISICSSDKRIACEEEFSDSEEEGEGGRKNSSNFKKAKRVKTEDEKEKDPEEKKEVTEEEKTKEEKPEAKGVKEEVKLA

For `O=C(CCCCCC1CNC1=O)Nc1ccccc1` (stereo not drawn), the concentration for half-maximal inhibition (IC50) (as a rule, the concentration at which inhibition is half-maximal) in assay [1] is 74.5 µM; in assay [2] it was more than 1 mM.

For the molecule `O=C(CCCCC[C@@H]1CN(O)C1=O)Nc1ccccc1`, the concentration for half-maximal inhibition (IC50) in assay [1] is 132 µM; in assay [2] it was more than 1 mM.

Take `Nc1ccccc1N1CC(CCCCCC(=O)Nc2ccccc2)C1=O` (stereo not drawn): the IC50 was more than 1000 µM in assay [1] and more than 1 mM in assay [2].

Turning to `O=C(CCCCC[C@H]1CN(O)C1=O)Nc1ccccc1`, the IC50 in assay [1] is 174 µM; in assay [2], more than 1 mM.
